In test [1] the test system is Akt1-S473E-T308P. Kind of test: [γ-32P]-ATP kinase activity assay, inhibition of Akt1-S473E-T308P. The test is classed as biochemical, H. sapiens. The conditions noted are these: 120 μM compound, 30 minutes at room temperature, in the absence and presence of the conjugated small molecule inhibitor. The procedure:
Peptide is SEQ ID NO:22. Kinase reactions were carried out with 120 μM of each compound for 30 minutes at room temperature. The amount of phosphorylated substrate was quantitated by liquid scintillation counting and the % Akt1-S473E-T308P activity determined based on the amount of product formed in the control kinase reaction. The values shown are the mean value of three experiments and the error bars are the standard deviation.
The activity of Akt-S473E-T308P was characterized by a [γ-^32P]-ATP kinase activity assay measuring the incorporation of ^32P into biotinylated crosstide peptide (Anaspec). Briefly, reactions containing 80 ng of Akt-S473E-T308P, 50 μM Bio-crosstide, and varying concentrations of ATP/[γ-^32P]-ATP (specific activity=1.5 mCi/mL).
(§1) Candidate sequences were scaled up and tested for their ability to inhibit Akt1-S473E-T308P activity. […] This peptide was re-synthesized as a C-terminal biotinylated peptide and used as the anchor in the biligand screen.

For test [2], the system named is Akt1-S473E-T308P. In words: Phosphorylation of biotinylated anchor peptide in standard kinase reaction. The test is classed as biochemical, H. sapiens. The conditions noted are these: 30 min at room temperature, liquid scintillation counting. The method, then: Biotinylated peptides were incubated in a standard kinase reaction mixture for 30 min. at room temperature. A portion of the reaction was spotted onto a SAM2 Biotin Capture Membrane (Promega), washed, and analyzed by liquid scintillation counting. The total counts per minute (cpm) are shown for the anchor peptide (VFYRL-Bio(1) (SEQ ID NO:22) and VFYRL-Bio(2) (SEQ ID NO:22)) as well as the standard substrate peptide (Bio-Crosstide). The number in parentheses identifies the diastereomer based on retention time in RP-HPLC.
Chain of Akt1-S473E-T308P (P31749 150-449 limits assumed, stated change not applied): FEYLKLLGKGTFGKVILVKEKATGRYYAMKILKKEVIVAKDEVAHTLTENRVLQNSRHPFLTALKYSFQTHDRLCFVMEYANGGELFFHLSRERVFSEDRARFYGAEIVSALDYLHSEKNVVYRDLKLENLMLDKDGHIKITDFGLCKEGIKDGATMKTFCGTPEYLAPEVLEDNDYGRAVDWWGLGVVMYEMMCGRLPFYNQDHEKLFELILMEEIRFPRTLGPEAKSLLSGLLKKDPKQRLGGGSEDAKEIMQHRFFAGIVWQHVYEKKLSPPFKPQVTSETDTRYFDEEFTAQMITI
as §1

For a further test, the target named is Akt-S473E. In words: ELISA with immobilized Akt-S473E, relative affinity of biotinylated ligands. The test is classed as binding, H. sapiens. The conditions noted are these: read-out: binding affinity for Akt.
Chain of Akt-S473E (P31749 144-449 limits assumed, stated change not applied): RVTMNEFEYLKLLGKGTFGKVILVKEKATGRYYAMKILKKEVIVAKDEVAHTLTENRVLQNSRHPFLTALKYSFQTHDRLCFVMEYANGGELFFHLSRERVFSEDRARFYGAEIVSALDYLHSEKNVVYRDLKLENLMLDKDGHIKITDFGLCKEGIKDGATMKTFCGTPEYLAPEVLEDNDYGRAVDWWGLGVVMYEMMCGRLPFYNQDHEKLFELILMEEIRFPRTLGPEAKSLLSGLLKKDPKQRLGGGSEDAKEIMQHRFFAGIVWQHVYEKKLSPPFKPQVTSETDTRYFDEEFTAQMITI
The test system of another test is Akt1. Kind of test: Specificity ELISA, immobilized ligand probed with His-tagged kinases. On the set-up: species or system H. sapiens. The conditions noted are these: A450 normalized to Akt1-S473E binding; kinase panel. The procedure:
(§2) Biotinylated ligand was immobilized on Streptavidin plates and probed with 25 nM His-tagged kinase followed by anti-Histag antibody-HRP conjugate. Values represent the mean A450 obtained from three experiments after normalization to Akt1-S473E binding. The error bars show the standard error.
(§3) The specificity of the anchor ligand, biligand, and triligand developed in Example 1 was analyzed using a battery of protein kinases. […] Akt1-S473E was expressed and purified as described above.
(§4) The relative affinity of each kinase was determined by probing with an anti-His6 antibody and normalizing the response to Akt1-S473E. All proteins were diluted in Akt blocking buffer to a final concentration of 24 nM prior to use. Ligands were diluted in Akt blocking buffer to a final concentration of 2.5 μM prior to use. 100 μL of each ligand (250 pmol) was added to each well of a HBC streptavidin-coated 96-well plate. The ligands were bound at 4° C. for 1 hour followed by addition of D-biotin to a final concentration of 500 μM. After 10 minutes at 4° C., the wells were washed three times with Akt blocking buffer and blocked overnight in 5% non-fat milk.
(§5) The wells were washed three times in Akt blocking buffer and 50 μL of active protein was applied to each well. After binding for 120 minutes at 4° C., the wells were washed three times in Akt blocking buffer to remove unbound protein. 50 μL of horseradish peroxidase-conjugated Anti-His6 antibody was added at a dilution of 1:100 (His Probe (H-3) HRP conjugate, Santa Cruz Biotechnology). The antibody-HRP conjugate was incubated for 60 minutes and the wells were washed 3 times in TBST and once in TBS. 50 μL of peroxidase substrate (KPL) was added and the resulting color change was quenched with 50 μL 1 M H2SO4. The A450 measured on a 96-well plate reader. […] The mean value for the triplicates was calculated and plotted and the error bars were generated from the standard error of the mean (GraphPad Prism).
A general note: An ELISA detects its analyte on a solid surface through an enzyme-linked reagent.

The target of a further test is T1, GSK3β (Homo sapiens, UniProt P49841).
T1 construct: a set of His-tagged active protein kinase domains from the AGC family; purchased Invitrogen
T1 sequence (P49841 56-340 limits assumed, species assumed): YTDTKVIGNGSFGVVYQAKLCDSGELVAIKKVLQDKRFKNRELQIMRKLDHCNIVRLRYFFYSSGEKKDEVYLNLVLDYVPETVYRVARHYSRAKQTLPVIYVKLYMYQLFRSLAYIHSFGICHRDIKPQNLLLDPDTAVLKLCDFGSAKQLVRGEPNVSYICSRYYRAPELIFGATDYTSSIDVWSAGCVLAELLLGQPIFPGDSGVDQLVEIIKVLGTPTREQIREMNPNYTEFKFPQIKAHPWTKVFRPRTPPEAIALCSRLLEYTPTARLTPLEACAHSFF
The description is as above. As to conditions: A450 normalized to Akt1-S473E binding. The procedure:
as §2, §3, §4, §5

For another test, the system named is Akt. In words: Immunoprecipitation of Akt from OVCAR3 cell lysates with immobilized ligands. The test is classed as binding. The conditions noted are these: EGF and insulin induced or control, Western blot with pan-Akt antibody.
In test [3] the target is T2, E17K mutant Akt1 PH Domain (Homo sapiens, UniProt P31749, E17K).
T2 construct: The first 124 N-terminal amino acids from full length Akt1 were used as the PH Domain DNA; thrombin cleavage site (C); 6-His (C); made in house; host or cells: E. coli
T2 sequence (P31749 1-124 E17K): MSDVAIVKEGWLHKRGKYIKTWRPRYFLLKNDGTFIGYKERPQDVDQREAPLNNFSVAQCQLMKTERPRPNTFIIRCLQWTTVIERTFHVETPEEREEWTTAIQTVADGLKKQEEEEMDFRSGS
In words: Streptavidin-agarose pulldown assay. The conditions noted are these: Western blot, relative protein band sizes. In kind it is binding. The method, then:
(§6) These resins were then incubated with either (a) WT or (b) E17K Mutant PHD to measure the amount of pulldown for each potential anchor ligand. Peptide eefef is SEQ ID NO:5. Peptide yleaf is SEQ ID NO:16.
(§7) Pulldown assays were done on Streptavidin Agarose resin from Novachem. The resin was incubated with N-terminally biotinylated anchor peptide candidates identified via the ClusterLigand sequence analysis. The anchor candidate coated beads were then incubated with both wildtype and mutant protein to compare the selectivity of the ligands, as well as the binding ability.
(§8) Assays were done with 50 uL of Streptavidin-Agarose slurry (25 uL resin) in Spin-X tubes. Resin was aliquotted into 14 tubes—six ligands plus a blank tested against two different proteins, then washed three times with 1×TBS with 0.25% IPEGAL detergent added. Each set of tubes was incubated with 170 nmol of the appropriate biotinylated ligand in 200 uL 1×HEPES (10 mM HEPES, 150 mM NaCl, 0.25% IPEGAL, 5 mM EDTA) or plain buffer for the blank. Ligand binding was done for one hour at room temperature, then resin was washed three times with 1×HEPES. Resin was blocked with 1×HEPES with 5% BSA for two hours. The anchor-coated resin was then incubated with either wildtype or mutant expressed PH domain protein overnight (˜16 hours) in cold room (4° C.). Protein was spun out of tubes, and the resin was washed three times with high salt TBS, then incubated for five minutes in the high salt buffer. The resin was then washed three times with the 1×TBS buffer, and spun out to dry completely. 50 uL of denaturing SDS gel loading buffer with 10% B-mercaptoethanol was added to the samples and they were incubated at 95° C. for ten minutes to denature. The gel loading buffer was spun out of the Spin-X tubes and the samples were run on an Any KD BioRad Premade Gel under denaturing conditions. Gel was transferred to nitrocellulose membrane and western blotted. Proteins were detected using rabbit polyclonal anti-Akt1 antibody (ab64148, Abcam) and an anti-rabbit HRP conjugated secondary anti-body then developed with West Pico Chemilluminescent substrate (Pierce).
For orientation: In western blotting, separated proteins are transferred to a membrane and probed.

The target in the next test is T3, wildtype Akt1 PH Domain (Homo sapiens, UniProt P31749).
T3 construct: The first 124 N-terminal amino acids from full length Akt1 were used as the PH Domain DNA; thrombin cleavage site (C); 6-His (C); made in house; host or cells: E. coli
T3 sequence (P31749 1-124): as the sequence (P31749 1-124 E17K) above, with K17E counted along it
In words: Streptavidin-agarose pulldown assay. The test is classed as binding. The conditions noted are these: Western blot, relative protein band sizes. The method, then: as §6, §7, §8

Square brackets hold non-standard residues; d marks the D form. Ends that are not written are not given here. Pra = C#CC[C@H](N)C(=O)O; Az8 = not defined here

Chain of Akt1 (P31749 150-408 limits assumed): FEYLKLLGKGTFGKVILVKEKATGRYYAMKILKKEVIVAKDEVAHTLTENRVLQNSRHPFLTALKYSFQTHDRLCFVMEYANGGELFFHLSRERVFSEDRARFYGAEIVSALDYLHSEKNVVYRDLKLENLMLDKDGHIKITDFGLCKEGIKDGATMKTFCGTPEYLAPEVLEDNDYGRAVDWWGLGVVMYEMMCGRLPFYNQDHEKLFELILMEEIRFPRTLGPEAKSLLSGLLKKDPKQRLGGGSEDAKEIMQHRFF
Procedure for Akt-S473E: Akt-S473E was immobilized on Ni-NTA plates and incubated with varying concentrations of biotinylated peptide. All values were normalized to the binding observed at saturation.
The affinity of the anchor ligand, biligand, and triligand developed in Example 1 was determined by ELISA with immobilized Akt-S473E.
3 μg of Akt-S473E was added to each well in a HisSorb Ni-NTA plate (Qiagen) in 50 μL of ELISA blocking buffer (25 mM Tris-Cl (pH=7.5), 150 mM NaCl, 10 mM MgCl2, 0.1% (v/v) Tween-20, and 4 mg/mL BSA). 50 μL of imidazole blocking buffer (25 mM Tris-Cl (pH=7.5), 150 mM NaCl, 10 mM MgCl2, 0.1% (v/v) Tween-20, 100 mM imidazole, and 4 mg/mL BSA) was added to the control wells. After 18 hours at 4° C., the wells were washed with ELISA blocking buffer and 50 μL of each ligand dilution was added in ELISA blocking buffer. The ligands were bound at 4° C. for 120 minutes followed by three washed in ELISA blocking buffer. 50 μL of horseradish peroxidase-conjugated streptavidin (SA-HRP, Thermo) was added (1:5000 dilution in ELISA blocking buffer) and incubated for 70 minutes at 4° C. […] 50 μL of peroxidase substrate (KPL) was added to generate the final signal which was quenched in 1 M H2SO4 and quantitated on a 96-well plate reader at X=450 nm. The Net A450 was calculated by subtracting the A450 of each blank well (No Akt-S473E) from the experimental well. […]

As for Az8-VFYRLGY-CONH2 [anchor ligand], the “inhibition of Akt1” value with Akt1-S473E-T308P [1] is on record as ~95%. Besides, in the test on Akt1-S473E-T308P [2], the “phosphorylation by Akt in vitro” value is listed as “not phosphorylated”. At Akt-S473E, the Kd was > 25 µM. Further, the “specificity / selectivity for Akt1” value in the test on Akt1 is reported as “very specific for the Akt1 protein”. At GSK3β, the “binding to GSK3β” value is on record as “only modest binding”.

On to “biligand: anchor ligand Az8-VFYRLGY linked by 1,4-triazole to secondary ligand Pra-FWFLRG-CONH2; biotinylated for assays (peptide 2 [Pra]FWFLRG-NH2; not fully specified (N-terminus, C-terminus, bridges); reading uncertain; also: biotinylated for assays, triazole at chain B 1 to a chain's N-terminus)”, for which the “specificity / selectivity for Akt1” value with Akt1 was “reduced selectivity”. For the same substance, the “binding to GSK3β” value with GSK3β was “significant cross-reactivity”. Besides, in the test on Akt, the “immunoprecipitation of Akt” value is recorded as “increased affinity”.

Take “eefef ([dE][dE][dF][dE][dF]; not fully specified (N-terminus); printed as eefef; also: biotinylated, position not confirmed)”: the “pulldown of E17K mutant PH Domain” value in test [3] was “the least pulldown for the mutant protein”. Further, the “pulldown of wildtype PH Domain” value in the test with wildtype Akt1 PH Domain was “the only pulldown of the wildtype protein”.

As for “yleaf ([dY][dL][dE][dA][dF]; not fully specified (N-terminus); printed as yleaf; also: biotinylated, position not confirmed)”, the “pulldown of E17K mutant PH Domain” value in test [3] is given as “the greatest binding to the mutant”. For the same substance, the “pulldown of wildtype PH Domain” value with wildtype Akt1 PH Domain is “the least binding to the wildtype”.

The values above are taken from patent publication US12480950B2, “AKT-specific capture agents, compositions, and methods of using and making” (California Institute of Technology, priority 2011, dated 2025).
